The subject of data set [1] is α-HL-Pol6 nanopore-polymerase conjugate.
The subject of data set [2] is exonuclease deficient variant of the Pol6 polymerase. Put plainly: Displacement assay of single-, double-, triple- and quadruple-nucleotide substrates (Example 3). The class given is biochemical. The source says:
The assay is a displacement assay using an exonuclease deficient variant of the Pol6 polymerase as described in Example 2, wherein polymerase activity is followed by fluorometrically monitoring the change in FRET between the Cy5 and BHQ labels as the polymerase incorporates the substrates in the DNA extension reaction.
Briefly, an assay solution containing the Pol6 polymerase, the 5′-Cy5-labelled displacement DNA template of SEQ ID NO: 124, and the 3′-BHQ-labelled quencher primer of SEQ ID NO: 124 in 75 mM potassium glutamate (“K-Glu”) is prepared in the absence of the substrate or Mg^2+ ion. A substrate solution is prepared containing either the multi-nucleotide compound to be assayed (i.e., “Y-Tag,” “W-Tag,” or “Q-Tag”), the non-tagged dT6P (“Hexa-PO4), or the tagged single nucleotide substrate, dA6P-dT30-C3 (“Full Tag”) of compound (3d). Also included in the substrate solution are the other three nucleotide-hexaphosphate (“dN6P”) substrates required for polymerase synthesis of a strand complementary to the DNA template (i.e., dA6P, dC6P, dG6P). This substrate solution is added to the polymerase solution. Assays are carried out for each of the test substrates at the following initial concentrations: 0.25 μM, 0.5 μM, 1.0 μM, 2.0 μM, 4.0 μM, and 8.0 μM. Additional K-Glu is added to bring the total K-Glu concentration in the mixture up to 300 mM. The polymerase reaction is then initiated by addition of MgCl2. Final concentrations in the assay reaction mixture are: 100 nM Pol6 enzyme, 50 nM Cy5 displacement DNA template, 40 μM each of other dN6P substrates, 300 mM K-Glu, 25 mM HEPES, 0.2 mM EDTA, 0.05% Triton X-100, 5 mM TCEP, 25 μg/mL BSA, 5 mM MgCl2, pH 7.5.

As for “(dT6P)2-dT4-(N3CE-dT)3-dT13-C3: two dT6P linked via doubler-linker to tag SEQ ID NO: 106 (DNA TTTTNNNTTTTTTTTTTTTT; chemistry not fully specified)”, the Blocking current level in data set [1] is listed as 0.62+/−0.05 Fraction of Open Current.

As to “(dC6P)2-dT20-C3: two dC6P linked via doubler-linker to tag SEQ ID NO: 105 (DNA tttttttttttttttttttt; two dC6P via doubler linker, C3 cap; (20)..(20) T-propanol)”, the Blocking current level in data set [1] is listed as 0.76+/−0.04 Fraction of Open Current.

In the case of “(dG6P)2-dT6-(Tmp)6-dT8-C3: two dG6P linked via doubler-linker to tag SEQ ID NO: 107 (DNA TTTTTTNNNNNNTTTTTTTT; two dG6P via doubler linker, Tmp, C3 cap; (7)..(12) thymidine methylphosphonate; (20)..(20) T-propanol)”, the Blocking current level in data set [1] is 0.38+/−0.08 Fraction of Open Current.

Turning to “(dA6P)2-dT5-(BHEB)-dT14-C3: two dA6P linked via doubler-linker to tag SEQ ID NO: 109 (DNA TTTTTNTTTTTTTTTTTTTT; two dA6P via doubler linker, BHEB, C3 cap, chemistry not fully specified)”, the Blocking current level in data set [1] is listed as 0.88+/−0.03 Fraction of Open Current.

`Cc1cn([C@H]2C[C@H](O)[C@@H](COP(=O)(O)OP(=O)(O)OP(=O)(O)OP(=O)(O)OP(=O)(O)OP(=O)(O)O)O2)c(=O)[nH]c1=O` [dT6P]: the “Rate (Bases/sec)” value in data set [2] (Initial Conc. Tag 0.25 μM) is listed as 0.57 Bases/sec; in data set [2] (Initial Conc. Tag 0.5 μM), 2.87 Bases/sec; in data set [2] (Initial Conc. Tag 1.0 μM), 3.48 Bases/sec; in data set [2] (Initial Conc. Tag 2.0 μM), 3.89 Bases/sec; in data set [2] (Initial Conc. Tag 4.0 μM), 4.48 Bases/sec; in data set [2] (Initial Conc. Tag 8.0 μM), 4.24 Bases/sec.
